Test results from patent US10550130B2, “Benzo-thiazolo-imidazole compounds and uses thereof” (KING SAUD UNIVERSITY, priority 2015, dated 2020).
pIC50: −log10 of the molar value.

What was measured:
[1] = Apparent toxicity (body weight, general signs) in tumor-bearing mice; format: in vivo; settings: 200 mg/kg intraperitoneal, three doses
Description: Nude mice (Jackson Laboratories, Bar Harbor, Me., USA) were injected with 4×10^6 cells of MDA-MB-468 in the mammary pad and tumor size was measured weekly using a caliper. When the tumor reached approximately 100 mm^3 diameter the mice were divided into a control group and a group treated with KSA-101696 200 mg/kg via intraperitoneal injection (three cycles every four days). Apparent toxicity as determined by body weight loss is recorded by measuring total body weight. Breeding, care and sacrifice of the animals were carried out in accordance with the protocols approved by the Animal Care and Use Committee of the King Faisal Specialist Hospital and Research Centre.
Because of the observed selective cytotoxic effect of compound KSA-101696 against cancer cells and the tolerance of normal cells and normal stem cells in vitro, a high dose of compound KSA-101696 (200 mg/kg) was used on mice.

[2] = system: colony forming SKBR3 cells; assay: 2-D colony formation assay; format: cell-based; settings: 5000 viable cells from the ALDEFLUOR assay cells; 60 mm dish
Description: Cells were treated with different concentration of the compound or control medium containing 0.1% DMSO for 72 h. Cells were harvested and counted by using trypan blue to exclude the dead cells. A 5000 viable cells of treated and control cells were suspended in 3 ml DMEM supplemented with 10% FBS (Cambrex Bio Science) and seeded in a 60 mm tissue culture dish (Falcon, BD). The next day, a new fresh media was added and the cells were allowed to grow forming colonies for 14 d. The cells were then stained with methylene blue (Sigma-Aldrich, St. Louis, Mo., USA) and colonies containing more than 20 cells were counted.
Thus, from the same cells as used in the ALDEFLUOR assay, 5000 viable cells were seeded in a 60 mm tissue culture dish.

[3] = system: ALDH-positive SKBR3 cells; assay: Aldefluor assay (ALDH-positive cells); format: cell-based
Description: SKBr3 cells with or without treatment harvested, washed and incubated in aldefluor assay buffer containing an ALDH substrate (BAAA). For negative control, half of the cells of each sample was removed to another FACS tube and incubated under identical condition with DEAB (diethylaminobenzaldehyde), a specific inhibitor of ALDH enzyme.
Because SKBR3 cells include, among various cell lines tested, a particularly high percentage of ALDH-positive cells, SKBR3 cells were selected to evaluate whether KSA-101696 inhibits ALDH-positive cells in vitro.
After two days of treatment with 2.5 μM of KSA-101696, a more that 50% reduction in ALDH-positive cell percentage was observed (FIG. 5A).

[4] = system: ALDH+ CD24low/CD44High breast cancer stem cells (from MDA-MB-468 cells); assay: Apoptosis in sorted breast cancer stem cells versus differentiated cells; format: cell-based; settings: 10 μM, two days; ALDH+ CD24low/CD44High vs ALDH- CD24High/CD44low from MDA-MB-468
Description: MDA-MB-468 Cells harvested, washed and incubated in aldefluor assay buffer containing an ALDH substrate (BAAA (BODIPY®-aminoacetaldehyde). For negative control, half of the cells of each sample was removed to another FACS tube and incubated under identical condition with DEAB, a specific inhibitor of ALDH enzyme. Then the cells were stained with the following directly conjugated monoclonal antibodies anti-mouse CD44-APC-Cy7 (Biolegend), anti-mouse CD24-Pacific Blue (EXBIO Praha, a.s.). All analyses and cell sorting were performed on a FACSAria™ cell sorter (BD Biosciences). Debris and cell clusters were excluded during side-scatter and forward-scatter analyses.
ALDH^+ CD24^low/CD44^High breast cancer stem cells were sorted and cultured for 24 h. Cells were then treated with 10 μM of the compound KSA-101696 for two days. At the same time, ALDH^− CD24^High/CD44^low breast cancer differentiated cells were used as a negative control to evaluate the selective apoptotic activity of the compound against breast cancer stem cells compared with differentiated phenotype from the same bulk population of MDA-MB-468 cells.

SP cells of MCF-7 cells = assay: Side population (SP) cell fraction by flow cytometry; format: cell-based; settings: Homo sapiens, MCF7, 24 h, normal culture conditions, read-out: IC50, SP cell inhibition
From the text: It is known that one of the properties of stem/progenitor cells is their ability to survive under anchorage-independent conditions and generate mammospheres, which are composed of a small number of stem cells. Given that CSCs generally make up for a small minority of the cells within cancer cell populations, the dye DyeCycle Violet was used to isolate SP cells (side population cells; the side population is enriched for stem/progenitor cells), through a BD FACSAria™ cell sorter. Subsequently, the isolated SP cells were used in a Mammosphere Formation Assay. SP cells of MCF-7 and BT-474 formed more mammospheres than non-SP cells (see FIG. 4A).
Next, the effects of the compound KSA-101696 in SP cells under normal culture conditions was evaluated.

## COc1ccc(-c2csc3nc4ccccc4n23)cc1 [KSA-101696, 3-(4-methoxyphenyl)benzo[4,5]imidazo[2,1-b]thiazole]
[1]
  signs of general toxicity: no convulsions, CNS stimulation, diarrhea, increased urination, miosis or mydriasis
  weight loss: no measurable weight loss
[2]
  inhibition of colony forming cells: showed the same activity in inhibition of colony forming cells
[3]; 2.5 μM, two days
  reduction in ALDH-positive cell percentage: > 50%
[3]; Homo sapiens, SK-BR-3
  pIC50: ~5.70
[4]
  induced apoptosis in cancer stem cells compared to differentiated breast cancer cells: two-fold increase
SP cells of MCF-7 cells
  pIC50: ~6.52
